Experimental data reported in article PMC9409351, “Differential Ganglioside and Cholesterol Depletion by Various Cyclodextrin Derivatives and Their Effect on Synaptosomal Glutamate Release” (International Journal of Molecular Sciences, 2022).
Like-named read-outs stand apart in the source and are kept apart here.

Legend:
[1] = test system: gangliosides (GM1, GD1a, GD1b, GT1b, GQ1b) of rat cerebral synaptosomes; test: Ganglioside depletion from synaptosomes, remaining content by capillary electrophoresis; format: cell-based; details: for IC50: rat cerebral synaptosomes, 40 min exposure
Protocol: Adult male Wistar rats purchased from Toxi-Coop Ltd. (Budapest, Hungary) were used in the experiments. Cerebral synaptosomes were prepared according to Modi and co-workers with the following modifications. Animals were decapitated and the brain was removed rapidly. Isotonic sucrose buffer (0.32 M sucrose, 4 mM HEPES-NaOH, pH 7.4) was used to homogenize the cerebrum with a Potter S Homogenizer (B. Braun, Melsungen, Germany) with 15 strokes at 1000 rpm. The homogenate was centrifuged (1500× g, 10 min, 4 °C) and the pellet was resuspended in sucrose buffer and centrifuged with the same parameters again. The two supernatants were combined and centrifuged (20,000× g, 10 min, 4 °C) to pellet the crude synaptosomes. The resulting supernatant was discarded and the pellet was washed again with an equal volume of sucrose buffer and then pelleted by centrifugation (20,000× g, 10 min, 4 °C). Synaptosomes were stored frozen using cryopreservation buffer and the slow freezing method to preserve their physiological state and integrity. Briefly, synaptosome pellets were resuspended in isotonic sucrose buffer containing 10% DMSO (v/v) and 10% FBS (v/v). To slow down the freezing process at −80 °C, synaptosomes were placed in a 3 cm thick-walled polystyrene box with a lid. Synaptosomes were stored at −80 °C until use. Immediately prior to the experiments, synaptosomes were rapidly thawed in a 37 °C water bath and pelleted by centrifugation (20,000× g, 10 min, 4 °C) to remove the cryopreservation buffer. The pellet was resuspended in isotonic HEPES-glucose buffer (10 mM HEPES-NaOH, 130 mM NaCl, 5.4 mM KCl, 1.3 mM CaCl2, 0.9 mM MgCl2, 5.5 mM glucose, pH 7.4) and aliquoted according to the experimental design.
For all types of experiments, except for the glutamate release measurements, vehicle-treated (control) and CD-treated synaptosomes were incubated in 500 μL HEPES-glucose buffer with or without CDs, respectively, for 40 min at 37 °C. […] After incubation, the synaptosomes were centrifuged (20,000× g, 5 min, 4 °C) and used immediately for further analysis. A slightly different incubation method used in the glutamate release measurements is described in the corresponding section. Across all types of experiments, osmolarities of the CD solutions were adjusted and they were between 290 and 310 mOsm. At least three parallel measurements were carried out.
The major neuronal ganglioside (GM1, GD1a, GD1b, GT1b, GQ1b) content of the rat cerebral synaptosome samples were measured by our previously published validated method. Briefly, after the CD treatments, gangliosides were extracted from 10 mg synaptosomes by liquid–liquid extraction. Ganglioside extracts were evaporated to dryness under a gentle stream of nitrogen (Zymark TurboVap LV, Hopkinton, MA, USA) in a 37 °C water bath. The dry ganglioside extract yielded from 10 mg synaptosomes was resuspended in 60 µL water, and centrifuged (20,000× g, 5 min, 4 °C) to remove the precipitate and the supernatant was analyzed by CE.
Ganglioside analysis was performed on a P/ACE MDQ capillary electrophoresis system (Beckman Coulter Inc., Brea, CA, USA) with UV detection at 200 nm. Uncoated fused silica capillaries with 75 µm internal diameter, […], respectively (Agilent Technologies, Santa Clara, CA, USA), were used. Separation was achieved by applying +25 kV voltage in a separation buffer containing 20 mM RAMEA and 100 mM sodium borate at pH 10.0. Ganglioside depletion in the CD-treated synaptosomes was calculated as the percentage of the ganglioside content of the vehicle-treated synaptosomes.
Data were analyzed by GraphPad Prism 8 (GraphPad Software, La Jolla, CA, USA). Concentration–response curves were constructed by the nonlinear regression method. One-way ANOVA followed by Bonferroni’s post hoc test was used for the data analysis in the case of the glutamate release experiments. […]

[2] = test system: rat cerebral synaptosomes; test: Resazurin reduction viability assay; format: cell-based; details: for IC50 / Concentration with significant decrease in viability / metabolic activity: 40 min exposure; for IC50: percentage of vehicle-treated synaptosomes; for Concentration with significant decrease in viability / metabolic activity: resazurin reduction
Protocol: Adult male Wistar rats purchased from Toxi-Coop Ltd. (Budapest, Hungary) were used in the experiments. Cerebral synaptosomes were prepared according to Modi and co-workers with the following modifications. Animals were decapitated and the brain was removed rapidly. Isotonic sucrose buffer (0.32 M sucrose, 4 mM HEPES-NaOH, pH 7.4) was used to homogenize the cerebrum with a Potter S Homogenizer (B. Braun, Melsungen, Germany) with 15 strokes at 1000 rpm. The homogenate was centrifuged (1500× g, 10 min, 4 °C) and the pellet was resuspended in sucrose buffer and centrifuged with the same parameters again. The two supernatants were combined and centrifuged (20,000× g, 10 min, 4 °C) to pellet the crude synaptosomes. […] Synaptosomes were stored frozen using cryopreservation buffer and the slow freezing method to preserve their physiological state and integrity. Briefly, synaptosome pellets were resuspended in isotonic sucrose buffer containing 10% DMSO (v/v) and 10% FBS (v/v). To slow down the freezing process at −80 °C, synaptosomes were placed in a 3 cm thick-walled polystyrene box with a lid. Synaptosomes were stored at −80 °C until use. Immediately prior to the experiments, synaptosomes were rapidly thawed in a 37 °C water bath and pelleted by centrifugation (20,000× g, 10 min, 4 °C) to remove the cryopreservation buffer. […] For all types of experiments, except for the glutamate release measurements, vehicle-treated (control) and CD-treated synaptosomes were incubated in 500 μL HEPES-glucose buffer with or without CDs, respectively, for 40 min at 37 °C. […] After incubation, the synaptosomes were centrifuged (20,000× g, 5 min, 4 °C) and used immediately for further analysis. A slightly different incubation method used in the glutamate release measurements is described in the corresponding section. Across all types of experiments, osmolarities of the CD solutions were adjusted and they were between 290 and 310 mOsm. At least three parallel measurements were carried out. Viability of the rat cerebral synaptosomes was measured by the Resazurin Cell Viability Kit (Cell Signaling Technology Inc., Danvers, MA, USA) with minor modifications. The assay was based on the reduction in the nonfluorescent resazurin to highly fluorescent resorufin by intracellular dehydrogenase enzymes. Briefly, after CD treatments, 2 mg of the synaptosomes were centrifuged (20,000× g, 5 min, 4 °C) and the supernatant was discarded. […] After 25 min of incubation, synaptosomes were centrifuged (20,000× g, 5 min, 4 °C). Fluorescence of the supernatant was measured with a Varioskan LUX multimode microplate reader (Thermo Fisher Scientific) at 530/590 nm. Viability of the CD-treated synaptosomes was calculated as the percentage of vehicle-treated control synaptosomes.

[3] = total = sum of individual gangliosides, read-out: Total ganglioside depletion IC50

Row | Compound | Ganglioside extraction at 10 mM ([1]; 10 mM) | Ganglioside extraction at 30 mM ([1]; 30 mM) | IC50 ([1]; read-out: GD1a depletion IC50) [mM] | IC50 ([1]; read-out: GD1b depletion IC50) [mM] | IC50 ([1]; read-out: GM1 depletion IC50) [mM] | IC50 ([1]; read-out: GQ1b depletion IC50) [mM] | IC50 ([1]; read-out: GT1b depletion IC50) [mM] | IC50 [1, 3] [mM] | Viability at 60 mM ([2]; 60 mM) | IC50 [2] [mM] | Concentration with significant decrease in viability / metabolic activity [2] | IC50 ([1]; 40 min, read-out: GD1a depletion IC50) [mM] | IC50 ([1]; 40 min, read-out: GD1b depletion IC50) [mM] | IC50 ([1]; 40 min, read-out: GM1 depletion IC50) [mM] | IC50 ([1]; 40 min, read-out: GQ1b depletion IC50) [mM] | IC50 ([1]; 40 min, read-out: GT1b depletion IC50) [mM] | IC50 ([1]; 40 min, total = sum of individual gangliosides, read-out: Total ganglioside depletion IC50) [mM] | Ganglioside loss at 50% cholesterol depleting concentration ([1]; at 50% cholesterol depleting concentration) | IC50 ([2]; Rattus norvegicus, 40 min) [mM] | Ganglioside extraction at highest examined concentration ([1]; 100 mM)
1 | COC[C@H]1O[C@@H]2O[C@H]3[C@H](O)[C@@H](OC)[C@@H](O[C@H]4[C@H](O)[C@@H](OC)[C@@H](O[C@H]5[C@H](O)[C@@H](OC)[C@@H](O[C@H]6[C@H](O)[C@@H](OC)[C@@H](O[C@H]7[C@H](O)[C@@H](OC)[C@@H](O[C@H]8[C@H](O)[C@@H](OC)[C@@H](O[C@H]1[C@H](O)[C@H]2OC)O[C@@H]8COC)O[C@@H]7COC)O[C@@H]6COC)O[C@@H]5COC)O[C@@H]4COC)O[C@@H]3COC [DIMEB, heptakis(2,6-di-O-methyl)-beta-cyclodextrin] | approximately 50% | Nearly total extraction | 9.7 | 14.5 | 15 | 11.4 | 8.7 | 10.5 | total loss of viability | 26.5 | higher than 10 mM | – | – | – | – | – | – | – | – | –
2 | CC(O)COC[C@H]1O[C@@H]2O[C@H]3[C@H](O)[C@@H](O)[C@@H](O[C@H]4[C@H](O)[C@@H](O)[C@@H](O[C@H]5[C@H](O)[C@@H](O)[C@@H](O[C@H]6[C@H](O)[C@@H](O)[C@@H](O[C@H]7[C@H](O)[C@@H](O)[C@@H](O[C@H]8[C@H](O)[C@@H](O)[C@@H](O[C@H]1[C@H](O)[C@H]2O)O[C@@H]8COCC(C)O)O[C@@H]7COCC(C)O)O[C@@H]6COCC(C)O)O[C@@H]5COCC(C)O)O[C@@H]4COCC(C)O)O[C@@H]3COCC(C)O (stereo partly drawn) [HPBCD, (2-hydroxypropyl)-beta-cyclodextrin] | – | – | – | – | – | – | – | – | – | – | 100 mM | 83.7 | 86.6 | 80.8 | 85.1 | 80.1 | 83.3 | ~ 5% | > 100 | –
3 | (2-hydroxypropyl)-alpha-cyclodextrin [HPACD] | – | – | 72.9 | 90.6 | 86.7 | 61.2 | – | 85.1 | – | – | – | – | – | – | – | – | – | – | – | ~ 60%
4 | randomly methylated alpha-cyclodextrin [RAMEA] | – | – | 25.1 | 26.4 | 29.1 | 30.3 | 24.2 | 26 | – | ~90 | 100 mM | – | – | – | – | – | – | – | – | –
